Test results taken from publication PMC5888952 (Toxicological Sciences, 2018).

Tests used:
[1] = test system: cryopreserved primary human hepatocytes (PHH) in 2Dsw culture; assay: Repeated-dose cytotoxicity
[2] = test system: cryopreserved primary human hepatocytes (PHH) in 3D spheroid culture; assay: Repeated-dose cytotoxicity; type: cell-based
[3] = after long-term exposure, chosen treatment regimen

COc1ccccc1Oc1c(NS(=O)(=O)c2ccc(C(C)(C)C)cc2)nc(-c2ncccn2)nc1OCCO [bosentan]
sensitivity of PHH in 2Dsw compared with 3D spheroids ([1]; after 7 days (3 treatments)): higher
sensitivity of PHH in 2Dsw compared with 3D spheroids ([1]; at 14 days (6 treatments)): equal sensitivity

O=C(O)Cc1ccccc1Nc1c(Cl)cccc1Cl [diclofenac]
sensitivity of PHH in 2Dsw compared with 3D spheroids [1, 3]: substantially lower sensitivities

O=c1[nH]c(=O)n([C@@H]2O[C@H](CO)[C@@H](O)[C@@H]2F)cc1I [fialuridine]
EC50 (50% reduction in viability, ATP) ([1]; 2Dsw culture, any of the 3 PHH donors, up to 14 days repeated exposure): could not be attained
sensitivity of PHH in 2Dsw compared with 3D spheroids [1, 3]: substantially lower sensitivities

CCc1ccc(CCOc2ccc(CC3SC(=O)NC3=O)cc2)nc1 (stereo not shown) [pioglitazone]
toxicity (ATP viability) ([1]; 2Dsw culture, up to 14 days): non-toxic
toxicity (ATP viability) ([2]; 3D spheroid culture, up to 14 days): non-toxic

Cc1c(C)c2c(c(C)c1O)CCC(C)(COc1ccc(CC3SC(=O)NC3=O)cc1)O2 (stereo not shown) [troglitazone]
donors in which toxicity was indicated ([1]; 2Dsw culture, 3 donors tested): 1 of the 3 donors
sensitivity of PHH in 2Dsw compared with 3D spheroids [1, 3]: substantially lower sensitivities
donors in which toxicity was identified at relevant concentrations ([2]; 3D spheroids, after 72 hours (single treatment), 3 donors tested): all 3 donors
